Values joined by “and” are separate entries in the source; they are usually repeats but may differ in a detail not shown here. Equal entries are not always repeated.
Experiments:
[1] = system: Peroxiredoxin-4 (PRDX4_HUMAN); assay: LC–MS proteome analysis, PRDX4; format: cell-based, Homo sapiens; conditions: for Protein Intensity, % (PRDX4): IC50 concentration, % of control
Procedure: (§1) Enzymes involved in oxidoreductive potential were analyzed in the cell lysates obtained after treatment cells with selected conjugates for 24 h. Cells were washed with phosphate-buffered saline (PBS) and harvested, then centrifuged at 1000× g for 10 min. Then, lysis buffer (containing protease inhibitor, 1% RIPA Lysis and Extraction Buffer (ThermoFisher)) and cold PBS were added, and samples were sonicated three times in ice bath. Next, the cell lysates were centrifuged at 14,000× g at 4 °C for 15 min, and then supernatants were stored at […] before use. Protein concentration was measured by the Bradford method.
(§2) Normalized protein concentrations (5 µg) from cell lysate were precipitated by ice cold (–20 °C) acetonitrile (ACN, Merck, in ratio 1:4). Then, samples were centrifuged (–9 °C, 30 min., 18,000× g), the supernatant was discarded and ACN excess was evaporated using a vacuum centrifuge (5 min., room temp.). Protein pellet was dissolved in 40 mM ammonium bicarbonate. An amount of 500 mM dithiothreitol (DTT, with final concentration 20 mM) and 1 M iodoacetamide (IAA, with final concentration 40 mM) were used for reduction and alkylation processes. After 16 h of incubation in 37 °C with Trypsin Gold (Promega), digested protein samples were diluted with 0.1% formic acid (ThermoFisher) and centrifuged (+2 °C, 30 min, 18,000× g).
(§3) LC–MS analysis was carried out with the use of nanoUHPLC (nanoElute, Bruker) coupled by CaptiveSpray (Bruker) to ESI-Q-TOF mass spectrometer (Compact, Bruker). Two-column separation method was used, i.e., pre-column (300 µm × 5 mm, C18 PepMap 100, 5 µm, 100Å, Thermo Scientific) and Aurora separation column with CSI fitting (75 µm × 250 mm, C18 1.6 µm) in gradient 2% B to 35% B in 90 min with the 300 nL/min flow rate. Mobile phases (A) 0.1% formic acid in water and (B) 0.1% formic acid in ACN were used.
(§4) Sample ionizations were performed at a gas flow of 3.0 L/min, temperature of 150 °C and voltage of the capillary at 1600 V. The quadrupole energy was fixed to 5.0 eV and collision chamber energy 7.0 eV, with an ion transfer time of 90 µs. The ions were analyzed in the positive polarity mode in the range 150–2200 m/z, with the acquisition frequency of the 1 Hz spectrum, as well as with the autoMS/MS system.
(§5) The collected spectra were analyzed and calibrated using DataAnalysis software (Bruker) and then identified in ProteinScape (Bruker) by the MASCOT server. Protein identification was conducted using the online SwissProt and NCBIprot databases, and their references and biological significance were identified using Reactome.org, String.org and KEGG.

[2] = system: Glutathione S-transferase A1 (GSTA1_HUMAN); assay: LC–MS proteome analysis, GSTA1; format: cell-based, Homo sapiens; conditions: for Protein Intensity, % (GSTA1): IC50 concentration, % of control; for decrease in the amount of GSTA1: SW620, IC50 concentration
Procedure: as §1, §2, §3, §4, §5

interleukin-6 (IL-6) = assay: IL-6 level assay (ELISA); format: cell-based, human; conditions: 72 h; for reduction of IL-6 secretion, times: PC3, IC50 dose; for reduction of IL-6 level, times / decrease of IL-6 level: SW480, IC50 dose, vs control
Procedure: IL-6 concentration at all studied cancer cells and normal HaCaT cell lines was measured by ELISA kit (Diaclon SAS Besancon Cedex, France). […] IL-6 in cell culture supernatant was measured using enzyme-linked immunosorbent assay in accordance with the manufacturer’s protocol.

SW480 cells = assay: Annexin V-FITC/PI flow cytometry, SW480; format: cell-based, human; conditions: for apoptosis of SW480 cells: at 4 μM (supplement text)
Procedure: The cells were cultured and harvested under the conditions described in the cell culture section. […] The effect of these compounds on the process of early and late apoptosis and necrosis was determined, as described previously, by dual staining with annexin V-FITC and propidium iodide according to manufacturer’s protocol (Becton Dickinson). The cells that were annexin V-FITC positive and PI-negative were identified as early apoptotic and annexin V-FITC and PI-positive as late apoptotic or necrotic.

[3] = system: Superoxide dismutase [Mn], mitochondrial (SODM_HUMAN); assay: LC–MS proteome analysis, SODM; format: cell-based, Homo sapiens; conditions: IC50 concentration, % of control
Procedure: as §1, §2, §3, §4, §5

[4] = system: Thioredoxin-dependent peroxide reductase, mitochondrial (PRDX3_HUMAN); assay: LC–MS proteome analysis, PRDX3; format: cell-based, Homo sapiens; conditions: IC50 concentration, % of control
Procedure: as §1, §2, §3, §4, §5

SW620 cells = assay: LDH release assay, SW620; format: cell-based, human; conditions: 72 h
Procedure: The presence of lactate dehydrogenase (LDH) in culture medium indicates a disturbance of the integrity of the cellular membrane. The LDH activity was performed after 72 h incubation of cells (1 × 10^4 cells per well) in 96-well plates with selected compounds according to manufacturer’s protocol (Roche Diagnostics, Germany), as was described by Chrzanowska et al.. Compound mediated cytotoxicity was determined using equation: ((A test sample−A low control)/ (A high control−A low control)) × 100% (A-absorbance), where “low control” means cells in medium with 2% FBS without tested compounds, and “high control” means cells incubated in medium with 2% FBS and 1% Triton X-100 (100% LDH release). The cytotoxicity was expressed as percentage of LDH release as compared with the maximum release of LDH from Triton-X-100-treated cells.

[5] = system: SW480, SW620, PC3 cancer cells; assay: MTT cytotoxicity assay, all cancer cell lines; format: cell-based, human; conditions: span or bound over SW480, SW620, PC3; 72 h; read-out: IC50 over the tested cancer cell lines
Procedure: The human primary (SW480), metastatic (SW620) colon cancer, metastatic prostate cancer (PC3) and human immortal keratinocyte (HaCaT) cell lines were purchased from the American Type Culture Collection (ATCC, Rockville, USA). The cells were cultured in medium according to protocols (MEM for SW480 and SW620, RPMI 1640 for PC3 and DMEM for HaCaT cells) supplemented with 10% fetal bovine serum (FBS), penicillin (100 U/mL) and streptomycin (100 μg/mL) and cultured in 37 °C/ 5% CO2 humidified incubator. The cells were cultured until appropriate confluence was achieved (80–90%). Next, they were harvested by treatment with 0.25% trypsin (Gibco Life Technologies, USA) and used for studies.
Cells without studied compounds in medium were used as a control.
The cell viability was assessed by determination of MTT salt (3-(4,5-dimethylthiazol-2-yl)-2,5-diphenyltetrazolium bromide) conversion by mitochondrial dehydrogenase. MTT assay was performed as previously described. Experiments were repeated three times. Cell viability was presented as a percentage of MTT reduction in the treated cells versus the control cells. Number of viable cells cultured without studied compounds was assumed to be 100%. Decreased relative MTT level means decreased cell viability. Thiourea complexes with the highest cytotoxic potential assessed by MTT determination (with the lowest IC50) were chosen for subsequent assessments of cytotoxicity mechanisms.

Compound	Protein Intensity, % (PRDX4) ([1]; PC3, 24 h)	Protein Intensity, % (PRDX4) ([1]; SW480, 24 h)	Protein Intensity, % (PRDX4) ([1]; SW620, 24 h)	Protein Intensity, % (GSTA1) ([2]; PC3, 24 h)	Protein Intensity, % (GSTA1) ([2]; SW480, 24 h)	Protein Intensity, % (GSTA1) ([2]; SW620, 24 h)	reduction of IL-6 secretion, times (interleukin-6 (IL-6))	reduction of IL-6 level, times (interleukin-6 (IL-6))	early apoptosis, % of cells (SW480 cells; SW480, IC50 dose, 72 h)	apoptosis of SW480 cells (SW480 cells)	Protein Intensity, % (SODM) ([3]; PC3, 24 h)	Protein Intensity, % (SODM) ([3]; SW480, 24 h)	Protein Intensity, % (SODM) ([3]; SW620, 24 h)	Protein Intensity, % (PRDX3) ([4]; PC3, 24 h)	Protein Intensity, % (PRDX3) ([4]; SW480, 24 h)	Protein Intensity, % (PRDX3) ([4]; SW620, 24 h)	LDH release (SW620 cells; SW620, 10 μM)	LDH release (SW620 cells; SW620, 60 μM)	decrease in the amount of GSTA1 [2]	IC50 [5]	also measured
O=[N+]([O-])c1cc([N+]2=C(Nc3ccccc3Br)[S][Cu-2]23[S]C(Nc2ccccc2Br)=[N+]3c2ccc(Cl)c([N+](=O)[O-])c2)ccc1Cl [Compound 1, Copper (II) complex with 1-(2-bromophenyl)-3-(4-chloro-3-nitrophenyl)thiourea]	72.6%	67.6%	79.4%	84.4%	78.3%	50.2%	1.5 times	1.9 times	45.18% ± 3.9%	47%	29% and 29.1%	67.8%	88.8%	69.5%	95.2%	69.9%	22%	48%	–	–	reduction of IL-6 concentration, times (interleukin-6 (IL-6); SW620, IC50 dose): 2.4 times
O=[N+]([O-])c1cc([N+]2=C(Nc3ccc(Br)cc3)[S][Cu-2]23[S]C(Nc2ccc(Br)cc2)=[N+]3c2ccc(Cl)c([N+](=O)[O-])c2)ccc1Cl [Compound 3, Copper (II) complex with 1-(4-bromophenyl)-3-(4-chloro-3-nitrophenyl)thiourea]	61.1%	60.1%	76.4%	70.6%	86.6%	45.2%	–	–	≤ 40%	–	31.2%	77.7%	77.1%	57.3%	85.4%	67.5%	–	–	54.8%	≤ 10 µM	decrease of IL-6 level (interleukin-6 (IL-6)): ≤ 30%
O=[N+]([O-])c1cc([N+]2=C(Nc3ccc(Cl)c(Cl)c3)[S][Cu-2]23[S]C(Nc2ccc(Cl)c(Cl)c2)=[N+]3c2ccc(Cl)c([N+](=O)[O-])c2)ccc1Cl [Compound 5, Copper (II) complex with 1-(4-chloro-3-nitrophenyl)-3-(3,4-dichlorophenyl)thiourea]	–	–	–	–	–	–	–	–	–	–	–	–	–	–	–	–	–	–	–	≤ 10 µM	–
O=[N+]([O-])c1cc(NC2=[N+](c3ccc(Cl)c([N+](=O)[O-])c3)[Cu-2]3([S]2)[S]C(Nc2ccc(Cl)c([N+](=O)[O-])c2)=[N+]3c2ccc(Cl)c([N+](=O)[O-])c2)ccc1Cl [Compound 6, Copper (II) complex with 1,3-bis(4-chloro-3-nitrophenyl)thiourea]	–	–	–	–	–	–	–	–	–	–	–	–	–	–	–	–	–	–	–	≥ 20.3 µM	–
O=[N+]([O-])c1cc([N+]2=C(Nc3ccccc3F)[S][Cu-2]23[S]C(Nc2ccccc2F)=[N+]3c2ccc(Cl)c([N+](=O)[O-])c2)ccc1Cl [Compound 7, Copper (II) complex with 1-(2-fluorophenyl)-3-(4-chloro-3-nitrophenyl)thiourea]	35.7%	58.3%	73.0%	79.2%	75.6%	36.4%	–	–	≤ 40%	–	25.2%	65.1%	45.3%	12.4%	90.4%	61.2%	–	30.2%	–	≤ 10 µM	reduction of PRDX4 intensity ([1]; SW480, IC50 concentration): 41.7%; decrease of IL-6 level (interleukin-6 (IL-6)): ≤ 30%
O=[N+]([O-])c1cc([N+]2=C(Nc3ccc(I)cc3)[S][Cu-2]23[S]C(Nc2ccc(I)cc2)=[N+]3c2ccc(Cl)c([N+](=O)[O-])c2)ccc1Cl [Compound 8, Copper (II) complex with 1-(4-iodophenyl)-3-(4-chloro-3-nitrophenyl)thiourea]	30.8%	78.2%	93.9%	73.5%	91.6%	54.3%	almost twofold	twofold	48.9% ± 3.4%	47%	29.4%	94.3%	92.7%	24.8%	96.3%	95.2%	23%	42.4%	45.7%	–	late apoptosis, % of cells (SW480 cells; SW480, IC50 dose, 72 h): 20.7% ± 2.8%

From article PMC8584173, “The Cytotoxic Effect of Copper (II) Complexes with Halogenated 1,3-Disubstituted Arylthioureas on Cancer and Bacterial Cells” (International Journal of Molecular Sciences, 2021)
